The record followed here is patent US8318723B2, “Pyrazine compounds, their use and methods of preparation” (Boehringer Ingelheim International GmbH, priority 2006, dated 2012).

As usually defined, the IC50 is the concentration at which inhibition is half-maximal. Read a high IC50 as weaker potency.

In assay [1] the target is T1, PIM-2 (Homo sapiens, UniProt Q9P1W9). As to the kind of experiment: PIM-2 assay, single-concentration screen (luciferase-luciferin ATP depletion). Format: biochemical. The settings on record: percent of control at 3 μg/mL final assay concentration, 1 μM ATP, 5 μM peptide substrate, 60 minutes. As to the method:
The activity of PIM-2 is measured using luciferase-luciferin based ATP detection reagent to quantify ATP depletion resulting from kinase-catalyzed phosphoryl transfer to a peptide substrate. The screen utilizes the Zymark Allegro UHTS system to dispense reagents, buffers and test compounds. To Greiner 384-well, white Lumitrac-200 plates, 20 μL/well of 20 nM PIM-2 (10 nM final assay concentration) in assay buffer (25 mM HEPES, pH 7.5, 10 mM MgCl2, 50 mM KCl, 0.2% CHAPS, 100 μM Na3VO4, 0.2% BSA and 200 μM TCEP) is delivered, followed by 10 μL/well of test compounds (3 μg/mL final assay concentration in 1% DMSO) that were previously dissolved in DMSO and diluted in assay buffer. A 10 μL volume of a solution containing 4 μM ATP (1 μM final assay concentration) and 20 μM peptide substrate (Biotin-[…], 5 μM final assay concentration) diluted in assay buffer is added to each well and the contents of the wells are mixed. […] The assay plates are read on an Analyst (Molecular Devices) in luminescence mode following additional 15 minutes of incubation at room temperature. Luminescence signals are converted to percent of control (POC) values using the formula: POC=(BCTRL−Signal)÷(BCTRL−PCTRL), where Signal is the test well signal, BCTRL is the average of background control well signals on the plate and PCTRL is the average of positive control well signals on the plate.

For assay [2], the target named is T1, PIM-2. As to the kind of experiment: PIM-2 assay, IC50 determination (luciferase-luciferin ATP depletion, 10-point dose response). Format: biochemical. The settings on record: for IC50: 10 nM PIM-2, 1 μM ATP, 50 μM peptide substrate, 15 minutes at room temperature.
Protocol: The screen utilizes the Zymark Allegro UHTS system to dispense reagents, buffers and test compounds. To Greiner 384-well, white Lumitrac-200 plates, 20 μL/well of 20 nM PIM-2 (10 nM final assay concentration) in assay buffer (25 mM HEPES, pH 7.5, 10 mM MgCl2, 50 mM KCl, 0.2% CHAPS, 100 μM Na3VO4, 0.2% BSA and 200 μM TCEP) is delivered, followed by 10 μL/well of test compounds (3 μg/mL final assay concentration in 1% DMSO) that were previously dissolved in DMSO and diluted in assay buffer. A 10 μL volume of a solution containing 4 μM ATP (1 μM final assay concentration) and 20 μM peptide substrate (Biotin-[sequence], 5 μM final assay concentration) diluted in assay buffer is added to each well and the contents of the wells are mixed. […] Positive control wells receive 10 μL/well of assay buffer in lieu of compound. The kinase reaction mixture is incubated for 60 minutes at room temperature. A 40 μL/well of ATP detection reagent is then added to the reaction mixture. The assay plates are read on an Analyst (Molecular Devices) in luminescence mode following additional 15 minutes of incubation at room temperature. Luminescence signals are converted to percent of control (POC) values using the formula: POC=(BCTRL−Signal)÷(BCTRL−PCTRL), where Signal is the test well signal, BCTRL is the average of background control well signals on the plate and PCTRL is the average of positive control well signals on the plate.
The IC50 of the compounds is determined with a modification of the above method. The assay is performed in 96-well Lumitrac-200, white, plates. Test compounds dissolved in DMSO (5 mg/mL) are serially diluted 1 to 3 in DMSO for 10-point dose response. The DMSO dilutions are further diluted in the assay buffer and 15 μL of this dilution is added to the assay plate, for a final starting assay concentration of 5 μg/mL in 1% DMSO. A 15 μL volume of 40 nM PIM-2 followed by 30 μL of a solution containing 2 μM ATP and 100 μM peptide substrate, all diluted in assay buffer, is added to each well for a final assay concentration of 10 nM PIM-2, 1 μM ATP, and 50 μM peptide substrate. The kinase reaction mixture is incubated for 15 minutes at room temperature. A 60 μL/well of ATP detection reagent is then added to the reaction mixture. The assay plates are read on an Analyst (Molecular Devices) in luminescence mode following additional 15 minutes of incubation at room temperature. IC50 is determined by fitting the POC of the dose response data to a 4-parameter logistic equation.

SMILES strings stand for the structures.

T1 sequence (Q9P1W9 whole entry): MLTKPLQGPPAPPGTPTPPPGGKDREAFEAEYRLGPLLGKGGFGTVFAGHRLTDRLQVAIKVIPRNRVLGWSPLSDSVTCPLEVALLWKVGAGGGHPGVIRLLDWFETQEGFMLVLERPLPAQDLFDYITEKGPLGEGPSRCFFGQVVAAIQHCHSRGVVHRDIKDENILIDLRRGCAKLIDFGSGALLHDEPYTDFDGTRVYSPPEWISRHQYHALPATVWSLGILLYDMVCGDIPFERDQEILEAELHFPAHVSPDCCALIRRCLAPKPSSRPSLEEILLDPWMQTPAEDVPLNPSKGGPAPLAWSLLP

Consider `CN1CCCN(c2cncc(-c3cccc(/C=C/C(=O)NCCO)c3)n2)CC1` [compound 45, (E)-N-(2-Hydroxy-ethyl)-3-{3-[6-(4-methyl-perhydro-1,4-diazepin-1-yl)-pyrazin-2-yl]-phenyl}-acrylamide], for which the “POC @ 3 μg/mL” value in assay [1] came out at 63 POC @ 3 μg/mL.
`CN(C)CCCNc1cncc(-c2cccc(/C=C/C(=O)O)c2)n1` [compound 8, (E)-3-{3-[6-(3-Dimethylamino-propylamino)-pyrazin-2-yl]-phenyl}-acrylic acid] showed an IC50 in assay [2] of 94 nM.
Same read-out and setting: in the case of `CN1CCCN(c2cncc(-c3cccc(/C=C/C#N)c3)n2)CC1` [compound 42, (E)-3-{3-[6-(4-Methyl-[1,4]diazepan-1-yl)-pyrazin-2-yl]-phenyl}-acrylonitrile] it was 13000 nM; in that of `NCCCCNc1cncc(-c2cccc(/C=C/C(=O)O)c2)n1` [compound 5, (E)-3-{3-[6-(4-Amino-butylamino)-pyrazin-2-yl]-phenyl}-acrylic acid], 22 nM; in that of `CN1CCCN(c2cccc(-c3cccc(/C=C/C(=O)O)c3)n2)CC1` [compound 36, (E)-3-{3-[6-(4-Methyl-[1,4]diazepan-1-yl)-pyridin-2-yl]-phenyl}-acrylic acid], 46 nM.
For `CN1CCCN(c2cncc(-c3cccc(/C=C/CO)c3)n2)CC1` [compound 41, (E)-3-{3-[6-(4-Methyl-[1,4]diazepan-1-yl)-pyrazin-2-yl]-phenyl}-prop-2-en-1-ol], in assay [2] (percent of control at 5 μg/mL (final starting assay concentration of dose response)), the “POC @ 5 μg/mL” value is given as 69POC @ 5 μg/mL.
The compound `CNCCN(C)c1cncc(-c2cccc(/C=C/C(=O)O)c2)n1` [compound 13, (E)-3-(3-{6-[Methyl-(2-methylamino-ethyl)-amino]-pyrazin-2-yl}-phenyl)-acrylic acid] came in with an IC50 in assay [2] of 240 nM.
For the compound `O=C(O)/C=C/c1cccc(-c2cncc(N3CCC(CO)CC3)n2)c1` [compound 33, (E)-3-{3-[6-(4-Hydroxymethyl-piperidin-1-yl)-pyrazin-2-yl]-phenyl}-acrylic acid], in assay [2], the IC50 was 2100 nM. This IC50 is about 8.8-fold higher than that of the compound before.
On the same count and under the same terms, then `COC(=O)/C=C/c1cccc(-c2cncc(N3CCCN(C)CC3)n2)c1` [compound 39, (E)-3-{3-[6-(4-Methyl-[1,4]diazepan-1-yl)-pyrazin-2-yl]-phenyl}-acrylic acid methyl ester], with 1400 nM; and `NCCNc1cncc(-c2cccc(/C=C/C(=O)O)c2)n1` [compound 12, (E)-3-{3-[6-(2-Amino-ethylamino)-pyrazin-2-yl]-phenyl}-acrylic acid], with 140 nM.
In the case of `NC(=O)CCNc1cncc(-c2cccc(/C=C/C(=O)O)c2)n1` [compound 16, (E)-3-{3-[6-(2-Carbamoyl-ethylamino)-pyrazin-2-yl]-phenyl}-acrylic acid], in assay [2], half-maximal inhibition (IC50) required 250 nM.
